In patent publication US8980843B2, “Leptin agonist and methods of use” (Temple University—of the Commonwealth System of Higher …, priority 2009, dated 2015):
Entries after “also recorded” stand apart in the source; their conditions may differ. Non-standard residues stand in square brackets, D forms with d. Residues, ends and D or L forms follow the SMILES beside them. *: point of attachment. αGalNAc = CC(=O)N[C@@H]1[C@@H](O)[C@@H](O)[C@@H](CO)O[C@@H]1*; Tyr(3,5-I2) = N[C@@H](Cc1cc(I)c(O)c(I)c1)C(=O)O; Acp = not defined here; Ahx = NCCCCCC(=O)O

Legend:
[1] = system: ObR-positive LN18 glioblastoma cells; experiment: Cell proliferation assay, LN18 glioblastoma cells; format: cell-based; conditions: data not shown
Procedure: (§1) LN18 and LN229 cells naturally expressing ObR were purchased from ATCC and were cultured in DMEM low glucose plus 5% fetal bovine serum.
(§2) Seventy percent confluent cultures of LN18 and LN229 cells were synchronized in serum-free medium (DMEM plus 10 μM FeSO4 and 0.5% bovine serum albumin—BSA) for 48 hours and then treated with leptin and/or compounds (different doses) for 3 days. Cell numbers before and after treatment were determined by direct counting the cells with trypan blue exclusion. All assays were done in triplicate and repeated 3-6 times. The cell numbers were expressed as means±standard error. The results were statistically evaluated by Student's t-test and analysis of variance (ANOVA). Values of p<0.05 were considered statistically significant.
(§3) Stimulation of ObR-positive cells by compound (1) was evaluated. A true agonist of an ObR-positive receptor should stimulate the growth of ObR-positive cells when added alone and should not antagonize the actions of leptin in the same cells. In order to determine whether compound (1) is a true agonist, the ObR-positive, CNS-resident glioblastoma cell lines LN229 and LN18 were used. EC values for this peptide were measured without exogenous leptin present, and IC values with 12 nM leptin added.

[2] = In vivo biodistribution of fluorescent-labelled peptide
Procedure: Compound (2), labeled with fluorescent dye Alexa Fluor® 680, was prepared and purified by reverse phase HPLC. 5 μg of the compound were injected intraperitoneally into anesthetized female Balb/c mice. While sleeping, the animals were placed into the fluorescence microscope chamber. Fluorescence exposure pictures were taken with a Kodak 4000MM camera set to 695 nm emission wavelength at five minute intervals afterwards for 80 min.

[3] = system: ObR-positive LN229 glioblastoma cells; experiment: Cell proliferation assay, ObR-positive LN229 glioblastoma cells; format: cell-based; conditions: for Selectivity (EC/IC): LN229 cells
Procedure: as §1, §2, §3

[4] = system: high-fat induced obesity (DIO) C57BL/6 mice; experiment: Mouse model of obesity and leptin resistance (DIO mice); format: in vivo; conditions: for Blood glucose level / Blood total cholesterol level: DIO mice; for resistance to treatment (weight curves): 10-day ip treatment, leptin 0.1, compound (1) 0.02 and 0.1 mg/kg/day
Procedure: Animals were sacrificed by CO2 inhalation. Livers were removed and fixed in 10% buffered formaldehyde, pH, 7.4. After 24 hour fixation, liver specimens were dehydrated in graded ethanol and placed into methyl benzoate for an hour. The specimens were then transferred to xylene and embedded into paraffin. 6-μm thick paraffin sections were deparaffinized and stained with H&E. Photomicrographs were taken by using a Zeiss light microscope equipped with a CCD camera. The final magnification of the pictures was 200-fold.
An animal model for leptin resistance was used to evaluate compounds of the invention. In this model, based on high-fat induced obesity (DIO) of normal mice, the animals are fed with a diet containing 40-60% fat and become resistant to leptin treatment (Steinberg et al., 2006, Endocrinology 147: 3906-3914; Nakagawa et al., 2003, J. Obesity 27: 557-565). Normal C57BL/6 mice were fed with regular 6% lab chow until 3 weeks of age when their diet was switched to peanuts only. Peanuts have 47-50% dry fat content, and are considered a typical high-fat food (Isleib et al., 2004, J. Agric. Food Chem. 52: 3165-3168). DIO mice develop peripheral leptin resistance after 16 days of high-fat diet (van Heek et al., 1997, J. Clin. Invest. 99:3 85-390). In this study, the mice were fed peanuts for 5 weeks. The animals had access to water and peanuts ad libitum. After 3 weeks (total age 6 weeks) a group of 6 mice remained untreated, and 4 groups received leptin or a compound of the invention.
Mice were weighed daily and received a daily single dose (around noon time) intraperitoneally with the following scheme: Group 1 (6 mice: 3 males, 3 females) —physiological solution (control); Group 2 (6 mice: 3 males, 3 females) —0.1 mg/kg/day leptin; Group 3 (4 mice: 2 males, 2 females) —0.02 mg/kg/day compound of the invention; Group 4 (6 mice: 3 males, 3 females) —0.1 mg/kg/day compound of the invention; and Group 5 (4 mice: 2 males, 2 females) —0.5 mg/kg/day compound of the invention. After 10 days of treatment, one male and one female mouse from each group were sacrificed and bled, and their livers, spleens, kidneys and brains were removed for histology and toxicity analysis.
The DIO mice were allowed to eat peanut ad libitum. They were weighed daily and received the following intraperitoneal treatment at noontime: Group 1 (6 mice: 3 males, 3 females) —physiological solution (control); Group 2 (6 mice: 3 males, 3 females) —0.1 mg/kg/day of leptin; Group 3 (4 mice: 2 males, 2 females) —0.02 mg/kg/day of compound (1); Group 4 (6 mice: 3 males, 3 females) —0.1 mg/kg/day of compound (1); and Group 5 (4 mice: 2 males, 2 females) —0.5 mg/kg/day of compound (1).

obese C57BL/6 mice = experiment: Pregnancy test after treatment of obese mice; format: in vivo; conditions: for Number of pregnancy incidents: observed 5 weeks
Description: The remaining mice after the treatment with leptin or a compound of the invention were returned to 6% fat lab chow diet, and locked into cages in couples. […] The two successful litters were examined for growth and behavioral patterns.
Upon cessation of the weight gain assay and laboratory work, the remaining mice were returned to 6% fat lab chow diet, and locked into cages in couples to investigate whether treatment with leptin or compound (1) improved their fertility rates. […] Neither of two couples of control, untreated mice produced litters, as expected (Table 3). […] Leptin treatment somewhat improved the situation because one of the two couples produced a litter. As for the couple of mice treated with the 0.5 mg/kg/day dose of compound (1), the female became pregnant immediately and delivered 6 healthy pups in less than a month (Table 3).

normal F344 male rats = experiment: Rat appetite control, intranasal administration to normal rats; format: in vivo; conditions: 0.1 mg/kg/day intranasal
Procedure: Eight 6-weeks-old male […] rats were kept on regular laboratory diet. At noon time for 10 days, the animals were weighed, turned upside down, and received 0.1 mg/kg/day of a compound of the invention ([…]) or physiological solution ([…]) dripped in 10 μL volume into their nose. On day 15, the rats were weighed and sacrificed (cervical dislocation), and bled for laboratory blood analysis. Their brains, livers, kidneys and spleens were removed and weighed.
Rats were allowed to lab chow ad libitum, and treatment lasted for 10 days with 0.1 mg/kg/day single dose of compound (1) dropped into the nose in 10 μL salt solution. Untreated control animals were administered 10 μL physiological salt solution. Results are represented in FIG. 5.

C57BL/6 mice = experiment: Short chronic toxicity study in peanut-fed mice; format: in vivo; conditions: 1.5 or 4.0 mg/kg ip once daily, 4 days
Procedure: Eight C57BL/6 mice, 6 weeks of age (8 mice: 4 males, 4 females), were fed with peanut diet for 6 days. They were split in three different groups. The first group was left untreated (4 mice: 2 males, 2 females). The second group received a compound of the invention once daily intraperitoneally at 1.5 mg/kg for 4 days (2 mice: 1 male, 1 female). The third group received a compound of the invention once daily intraperitoneally at 4.0 mg/kg (2 mice: 1 male, 1 female) for 4 days. The animals were inspected daily for signs of disease or discomfort. After 5 days of treatment, the mice were weighed, sacrificed with CO2 inhalation, and bled for laboratory blood analysis. Their brains, livers, kidneys and spleens were inspected, removed and weighed.
Eight mice (4 males, 4 females) were fed with peanut diet for 6 days. After that, they were left untreated (2 males, 2 females), or received compound (1) once daily at 1.5 mg/kg (1 male, 1 female) or 4.0 mg/kg (1 male, 1 female) for 4 days.

[5] = 5 μg intraperitoneally, fluorescence imaging

## CC(=O)N[C@H]1[C@@H](O[C@H](C)[C@H](NC(=O)[C@H](CO)NC(=O)[C@@H](N)Cc2cc(I)c(O)c(I)c2)C(=O)N[C@@H](CCC(=O)O)C(=O)N[C@H](C(=O)N[C@H](C(=O)N[C@@H](C)C(=O)N[C@@H](CC(C)C)C(=O)N[C@@H](CO)C(=O)N[C@@H](CCCNC(=N)N)C(=O)NCCCCCC(N)=O)C(C)C)C(C)C)O[C@H](CO)[C@H](O)[C@@H]1O [compound (1), Tyr(I2)-Ser-Thr(α-GalNAc)-Glu-Val-Val-Ala-Leu-Ser-Arg-AcpNH2] (H-[Tyr(3,5-I2)]ST(αGalNAc)EVVALSR[Ahx]-NH2; N-terminus assumed)
[1]
  agonistic activity: picomolar agonistic activities
[2]; inferred from labelled analogue
  BBB-penetrating ability, by inference from compound (2): good BBB-penetrating ability
[3]
  Selectivity (EC/IC): >100
[3]; listed as Compound (1)
  Selectivity (EC/IC): greater than 100
[3]; LN229 proliferation, with 12 nM leptin added
  IC100: >100 nM
[3]; LN229 proliferation, without exogenous leptin, 3 days
  EC100: <1 nM
[3]; with 12 nM leptin added
  Antagonistic properties (ICs) to leptin-induced LN229 stimulation: ≥ 100 nM
[4]; 0.02 mg/kg/day ip, 10 days
  weight reduction relative to untreated controls at end of treatment: 0.5 g
[4]; 0.02 mg/kg/day ip
  Blood glucose level: 8.45 mM/L
  Blood total cholesterol level: 2.51 mM/L
[4]; 0.1 mg/kg/day ip, 10 days
  weight reduction relative to untreated controls at end of treatment: 0.6 g
[4]; 0.1 mg/kg/day ip
  Blood glucose level: 8.55 mM/L
  Blood total cholesterol level: 2.77 mM/L
[4]; 0.5 mg/kg/day ip
  blood cholesterol level reduction: 9%
  glucose level reduction: 17%
  liver fat cell content (histology): fatty cytoplasm could no longer be observed; also recorded: fat cells were completely eliminated from the liver
  Blood glucose level: 7.06 mM/L
  Blood total cholesterol level: 2.08 mM/L
[4]; 0.5 mg/kg/day ip, 10 days
  net total body weight loss: 6.5%
  relative weight loss compared to untreated mice: 1.3 g
[4]; 0.02, 0.1 and 0.5 mg/kg/day ip
  liver fat cell content, dose dependence: lowered the fatty cell content of the liver in a dose-dependent manner
[4]
  resistance to treatment (weight curves): lack of resistance to peptide treatment
Obese C57BL/6 mice; after 0.02 mg/kg/day ip
  Number of pregnancy incidents: 0
Obese C57BL/6 mice; after 0.1 mg/kg/day ip
  Number of pregnancy incidents: 0
Obese C57BL/6 mice; after 0.5 mg/kg/day ip, one couple
  healthy pups delivered: 6
Obese C57BL/6 mice; after 0.5 mg/kg/day ip
  Number of pregnancy incidents: 1
Obese C57BL/6 mice; low-dose regimen (0.02 and 0.1 mg/kg/day)
  fertility of couples: remained infertile
Normal F344 male rats; 10 days, day 11
  weight growth less than untreated controls: 10.8 g
Normal F344 male rats; 10 days, day 14
  net total body weight (tbw) loss: 6.8%
  weight growth less than untreated controls: 11.7 g
Normal F344 male rats; at sacrifice
  average total blood cholesterol level: 1.28 mmol/L
  organ weight, brain: 1.2 g
  organ weight, kidney: 1.5 g
  organ weight, liver: 6.9 g
  organ weight, spleen: 0.42 g
C57BL/6 mice
  average organ weight, brain: 0.3 g
  average organ weight, kidney (females): 0.20 g
  average organ weight, kidney (males): 0.25 g
  average organ weight, liver: 1.06 g
  average organ weight, spleen: 0.09 g
  gross necropsy: no signs of toxicity
  weight change during compound addition: Three of the 4 treated mice lost weight

## Alexa680-Tyr(I2)-Ser-Thr(α-GalNAc)-Glu-Val-Val-Ala-Leu-Ser-Arg-AcpNH2 ({Alexa680-Tyr(3,5-I2)-Ser-Thr(α-GalNAc)}-EVVALSR-{Acp-NH2}; reading uncertain) [compound (2)]
[2]; [5]
  BBB-penetrating ability: good BBB-penetrating ability
  distribution into peptide elimination organs (kidneys, liver, spleen): distributed into the usual peptide elimination organs within one hour from administration
  presence in tail, limbs and brain: also found in the tail, the limbs and the brain

## leptin: Human leptin purchased from R&D Systems; 146-amino acid neurohormone, native ObR ligand
[4]; 0.1 mg/kg/day ip
  liver fat cell content (histology): acinoperipheral regions of the liver still contained fat cells
  Blood glucose level: 5.22 mM/L
  Blood total cholesterol level: 2.47 mM/L
[4]; 0.1 mg/kg/day ip, 10 days
  weight reduction relative to untreated controls at end of treatment: 0.3 g
[4]
  resistance to treatment (weight curves): fast acquisition of resistance
Obese C57BL/6 mice; after 0.1 mg/kg/day ip
  Number of pregnancy incidents: 1
